In patent US7053178B2, “Synthetic peptides and kits for diagnosis of anti-phospholipid syndrome” (Yeda Research Development Co., LTD, priority 1998, dated 2006):
Where no end group is shown, it is not given here.

How the values were obtained:
anti-β2GPI ILA-1 mAb [1] = assay: U937 monocyte adhesion to HUVEC exposed to ILA-1 mAb; format: cell-based, human; conditions: ILA-1 mAb preincubated with peptide, 10 μM peptide
Experimental: FIGS. 3A–3C are graphs showing inhibition of U937 monocyte cell adhesion to HUVEC upon exposure to anti-β2GPI ILA-1, ILA-3 and G-3 mAbs and increasing concentrations of the inhibitory monomer peptides A, B and C, respectively, and of unrelated peptide D as control. The percentage of inhibition of adhesion was calculated as follows: % inhibition of adhesion=CPM in the presence of anti-β2GPI mAb−CPM in the presence of anti-β2GPI mAb and the tested peptide/CPM in the presence of anti-β2GPI mAb×100 (CPM=counts/min). Each point represents mean±SD of three different experiments.
(g) Adherence of U937 monocyte cells to endothelial cells in the presence of anti-β2GPI mAbs and the inhibitory peptides. This assay was performed as previously described (Carvalho et al., 1996). Briefly, U937 cells (a monocyte/macrophage-like cell line) were pretreated with heat-aggregated gamma-globulin for 30 min at 37° C. […] Radioactivity associated with adherence was quantified by beta-scintillation spectroscopy. The results were expressed as percent of added U937 cells that adhered and are presented as the mean±SD from 3–5 replicate wells.
The adhesion of monocytes to endothelial cells (EC) is considered a marker of EC activation. The percentage of adhesion is expressed as the portion of added U937 monocyte cells adhering to the HUVEC (thus reflecting the percentage of HUVEC coverage by the monocytes). […]

[2] = test system: experimental APS induced by anti-β2GPI mAb ILA-1; assay: Murine experimental APS induced by ILA-1 mAb; format: in vivo, BALB/c mice; conditions: for aPTT (activated partial thromboplastin time): mice infused i.v. with 20 μg ILA-1 mAb day 0 of pregnancy; for Platelet count / % Fetal loss (Resorbed fetuses/Total fetuses): mice infused with ILA-1 mAb
Experimental: (i) Mice: Female BALB/c mice, aged 10–12 weeks, were purchased from Tel-Aviv University Animal House, Israel. The females were caged overnight with BALB/c males and examined for vaginal plug next morning. The presence of the plug was considered as day 0 of pregnancy in all the studied groups. (j) Induction of murine experimental APS. Mice were infused intravenously with 20 μg of each one of the anti-β2GPI ILA-1, ILA-3, and G-3 mAbs at day 0 (the day at which a vaginal plug was observed following mating) (Blank et al., 1991), 6 hours later the mice received daily 40 μg/mouse of the tested peptides during 3 days. The mice were bled and sacrificed on day 15 of pregnancy. Fetal resorptions, activated partial thromboplastin time and platelet counts (markers of the APS-equivalent in mice) were determined as described (Blank et al., 1991). Significant fetal loss, thrombocytopenia and prolonged activated thromboplastin time (aPTT) were induced in naive mice following passive intravenous administration of the three anti-β2GPI mAbs ILA-1, ILA-3 and G-3, as described in Materials and Methods, section (j). The clinical manifestations of the experimental APS were prevented by infusion of the specific peptide monomers A, B, C which were delivered to the mice with the corresponding pathogenic anti-β2GPI mAbs, as shown in Table 2. […] Similarly, mice which were preinfused with control IgM and received a cocktail of the peptide monomers (A+B+C), were not affected.

anti-β2GPI ILA-1 mAb [3] = assay: ELISA for adhesion molecule expression on HUVEC exposed to ILA-1 mAb; format: cell-based, human; conditions: ILA-1 mAb preincubated with peptide
Experimental: FIG. 4 is a bar graph showing inhibition of expression of the adhesion molecules E-selectin, intracellular adhesion molecule-1 (ICAM-1) and vascular cell adhesion molecule-1 (VCAM-1) on HUVEC by specific inhibitory monomer peptides A, B, or C. To the HUVEC incubated with β2GPI, were added anti-β2GPI ILA-1, ILA-3 and G-3 mAbs with and without preincubation (2 h) with the peptide monomers A, B and C, respectively, and control peptide D. The expression of adhesion molecules was probed by ELISA employing biotinylated anti-human ICAM-1, VCAM-1, E-selectin and streptavidin-alkaline phosphatase. Each point represents mean±SD of three different experiments.
(h) ELISA for detecting the expression of adhesion molecules following exposure to anti-β2GPI mAbs and the inhibitory peptides. HUVEC cells grown in 96-well plates and preincubated with mAbs, with and without different concentrations of specific and irrelevant peptides (100 ug/ml), were washed, fixed with 0.1% glutaraldehyde, and then treated with PBS containing 0.2% Triton-X100 in order to permeabilize the cell membrane (Adamson et al., 1996). The plates were blocked with 3% BSA and incubated with biotinylated mouse anti-human E-selectin, anti-human intracellular adhesion molecule-1 (ICAM-1) or anti-human vascular cell adhesion molecule-1 (VCAM-1) (PharMingen, Torreyana Road, San Diego, Calif.) 1 μg/ml for 1 hour. The cells were then exposed to streptavidin alkaline phosphatase (Jackson) and appropriate substrate.
The enhancement of monocytes to endothelial cells followed by increase in the amount of adhesion molecules expression, as a result of exposure of endothelial cells to anti-β2GPI mAbs, has been observed previously at the laboratory of one of the present inventors. The effect of each specific peptide monomer A, B, C on the expression of the adhesion molecules E-selectin, ICAM-1 and VCAM-1 on HUVEC caused by the corresponding anti-β2GPI mAb, was examined according to Materials and Methods, section (h). […]

[4] = peptide 40 μg/mouse daily 3 days, day 15

NTLKTPRVGG [Peptide A]
inhibition of adhesion of U937 to HUVEC (anti-β2GPI ILA-1 mAb [1]): 84%
aPTT (activated partial thromboplastin time) [2, 4]: 33 ± 4 s
aPTT (activated partial thromboplastin time) ([2]; peptide 40 μg/mouse daily 3 days, day 15, listed as peptide A): 33 ± 4 s
Platelet count [2]: 989±103 cells/mm^3×10^3
% Fetal loss (Resorbed fetuses/Total fetuses) [2, 4]: 8 ± 2%
Platelet count [2, 4]: 989
% Fetal loss (Resorbed fetuses/Total fetuses) ([2]; peptide 40 μg/mouse daily 3 days, day 15, listed as peptide monomer A): 8±2%
E-selectin expression by HUVEC (anti-β2GPI ILA-1 mAb [3]): 0.239±0.064 O.D.
ICAM-1 expression by HUVEC (anti-β2GPI ILA-1 mAb [3]): 0.204±0.072 O.D.
VCAM-1 expression by HUVEC (anti-β2GPI ILA-1 mAb [3]): 0.252±0.071 O.D.
